Assay results as given in patent publication US7074789B2, “Kinase inhibitors” (Amgen Inc., priority 1999, dated 2006).

Tests used:
Type in all cases: biochemical
Lck = biological target: T1, Lck (Homo sapiens, UniProt P06239); assay: Kinase inhibition assay (33P transfer), Lck; conditions: for IC50: read-out: Lck-1
T1 construct: Kinases are expressed as either kinase domains or full length constructs; made in house
How it was run: (§1)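 Enzyme activity is taken as the amount of 33PO4 moved from ATP onto poly(Glu, Tyr) 4:1 or poly(Arg, Ser) 3:1 fixed to the plate surface. Unbound label is removed with 0.5% phosphoric acid before scintillation counting.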

Zap-70 = biological target: T2, Zap-70 (Homo sapiens, UniProt P43403); assay: Kinase inhibition assay (33P transfer), Zap-70; conditions: for IC50: read-out: Zap-1
T2 construct: Kinases are expressed as either kinase domains or full length constructs; made in house
T2 sequence (P43403 1-619): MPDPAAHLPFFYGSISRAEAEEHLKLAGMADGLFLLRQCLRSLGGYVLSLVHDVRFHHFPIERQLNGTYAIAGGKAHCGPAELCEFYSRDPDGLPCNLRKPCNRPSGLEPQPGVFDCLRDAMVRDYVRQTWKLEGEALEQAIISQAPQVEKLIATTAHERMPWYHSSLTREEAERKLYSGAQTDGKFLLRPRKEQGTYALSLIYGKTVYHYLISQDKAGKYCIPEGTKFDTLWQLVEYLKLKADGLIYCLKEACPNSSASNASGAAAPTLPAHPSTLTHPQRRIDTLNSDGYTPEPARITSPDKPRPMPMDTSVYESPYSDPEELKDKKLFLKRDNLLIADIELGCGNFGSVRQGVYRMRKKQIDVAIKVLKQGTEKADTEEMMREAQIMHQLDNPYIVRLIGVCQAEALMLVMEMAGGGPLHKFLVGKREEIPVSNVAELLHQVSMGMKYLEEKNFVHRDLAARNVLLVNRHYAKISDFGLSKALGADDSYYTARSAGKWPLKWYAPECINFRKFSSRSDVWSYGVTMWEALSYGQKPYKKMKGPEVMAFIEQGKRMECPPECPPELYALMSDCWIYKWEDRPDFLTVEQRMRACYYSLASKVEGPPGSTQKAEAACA
How it was run: as §1

Itk = biological target: T3, Itk (Homo sapiens, UniProt Q08881); assay: Kinase inhibition assay (33P transfer), Itk; conditions: for IC50: read-out: Itk-1
T3 construct: Kinases are expressed as either kinase domains or full length constructs; made in house
T3 sequence (Q08881 1-620): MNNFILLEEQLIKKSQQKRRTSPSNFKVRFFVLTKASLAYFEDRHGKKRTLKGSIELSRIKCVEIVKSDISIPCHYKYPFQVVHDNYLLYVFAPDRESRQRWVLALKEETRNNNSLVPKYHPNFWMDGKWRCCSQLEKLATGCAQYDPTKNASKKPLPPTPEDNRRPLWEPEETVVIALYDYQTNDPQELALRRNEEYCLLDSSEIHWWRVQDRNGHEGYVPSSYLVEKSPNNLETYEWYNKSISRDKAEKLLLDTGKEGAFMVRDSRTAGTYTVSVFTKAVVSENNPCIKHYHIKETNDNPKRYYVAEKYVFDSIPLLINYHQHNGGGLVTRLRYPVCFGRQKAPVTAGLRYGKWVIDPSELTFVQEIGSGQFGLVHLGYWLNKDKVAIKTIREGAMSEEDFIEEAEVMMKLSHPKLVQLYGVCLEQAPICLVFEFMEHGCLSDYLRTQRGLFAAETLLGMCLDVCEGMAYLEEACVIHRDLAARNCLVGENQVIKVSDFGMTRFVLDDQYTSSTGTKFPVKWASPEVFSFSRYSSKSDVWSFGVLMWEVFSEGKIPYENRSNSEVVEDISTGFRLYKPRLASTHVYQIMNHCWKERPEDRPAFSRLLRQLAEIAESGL
How it was run: (§2)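 Read-out: scintillation counts of 33P moved from ATP onto synthetic peptide polymer coated on the well surface, after washing with 0.5% phosphoric acid. Enzymes were tagged (GST or polyHistidine) and came from bacterial or insect-cell expression. IC50 marks 50% loss of incorporated label.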

EGFR = biological target: T4, EGFR (Homo sapiens, UniProt P00533); assay: Kinase inhibition assay (33P transfer), EGFR; conditions: Table 2, kinase inhibition class; for IC50: read-out: EGFR-1
T4 construct: Kinases are expressed as either kinase domains or full length constructs; made in house
How it was run: as §2

ErbB2 = biological target: T5, ErbB2 (Homo sapiens, UniProt P04626); assay: Kinase inhibition assay (33P transfer), ErbB2; conditions: for IC50: read-out: ErbB2-2
T5 construct: Kinases are expressed as either kinase domains or full length constructs; made in house
How it was run: as §2

Kdr = biological target: T6, Kdr (Homo sapiens, UniProt P35968); assay: Kinase inhibition assay (33P transfer), Kdr; conditions: for IC50: read-out: KDR-1
T6 construct: Kinases are expressed as either kinase domains or full length constructs; made in house
How it was run: as §1

c-Met = biological target: T7, c-Met (Homo sapiens, UniProt P08581); assay: Kinase inhibition assay (33P transfer), c-Met; conditions: Table 2, kinase inhibition class; for IC50: read-out: Met-1
T7 construct: Kinases are expressed as either kinase domains or full length constructs; made in house
How it was run: as §2

AKT = biological target: T8, AKT (Homo sapiens, UniProt Q9Y243); assay: Kinase inhibition assay (33P transfer), AKT; conditions: Table 2, kinase inhibition class; for IC50: read-out: AKT3-1
T8 construct: Kinases are expressed as either kinase domains or full length constructs; made in house
How it was run: as §1

IGFR-1 = biological target: T9, IGFR-1 (Homo sapiens, UniProt P08069); assay: Kinase inhibition assay, IGFR-1 (Table 2); conditions: Table 2, kinase inhibition class
T9 construct: Kinases are expressed as either kinase domains or full length constructs; made in house

PDGFRB = biological target: T10, PDGFRB (Homo sapiens, UniProt P09619); assay: Kinase inhibition assay (33P transfer), PDGFRB; conditions: for IC50: read-out: PDGFRB-1
T10 construct: Kinases are expressed as either kinase domains or full length constructs; made in house
T10 sequence (P09619 33-1106, species assumed): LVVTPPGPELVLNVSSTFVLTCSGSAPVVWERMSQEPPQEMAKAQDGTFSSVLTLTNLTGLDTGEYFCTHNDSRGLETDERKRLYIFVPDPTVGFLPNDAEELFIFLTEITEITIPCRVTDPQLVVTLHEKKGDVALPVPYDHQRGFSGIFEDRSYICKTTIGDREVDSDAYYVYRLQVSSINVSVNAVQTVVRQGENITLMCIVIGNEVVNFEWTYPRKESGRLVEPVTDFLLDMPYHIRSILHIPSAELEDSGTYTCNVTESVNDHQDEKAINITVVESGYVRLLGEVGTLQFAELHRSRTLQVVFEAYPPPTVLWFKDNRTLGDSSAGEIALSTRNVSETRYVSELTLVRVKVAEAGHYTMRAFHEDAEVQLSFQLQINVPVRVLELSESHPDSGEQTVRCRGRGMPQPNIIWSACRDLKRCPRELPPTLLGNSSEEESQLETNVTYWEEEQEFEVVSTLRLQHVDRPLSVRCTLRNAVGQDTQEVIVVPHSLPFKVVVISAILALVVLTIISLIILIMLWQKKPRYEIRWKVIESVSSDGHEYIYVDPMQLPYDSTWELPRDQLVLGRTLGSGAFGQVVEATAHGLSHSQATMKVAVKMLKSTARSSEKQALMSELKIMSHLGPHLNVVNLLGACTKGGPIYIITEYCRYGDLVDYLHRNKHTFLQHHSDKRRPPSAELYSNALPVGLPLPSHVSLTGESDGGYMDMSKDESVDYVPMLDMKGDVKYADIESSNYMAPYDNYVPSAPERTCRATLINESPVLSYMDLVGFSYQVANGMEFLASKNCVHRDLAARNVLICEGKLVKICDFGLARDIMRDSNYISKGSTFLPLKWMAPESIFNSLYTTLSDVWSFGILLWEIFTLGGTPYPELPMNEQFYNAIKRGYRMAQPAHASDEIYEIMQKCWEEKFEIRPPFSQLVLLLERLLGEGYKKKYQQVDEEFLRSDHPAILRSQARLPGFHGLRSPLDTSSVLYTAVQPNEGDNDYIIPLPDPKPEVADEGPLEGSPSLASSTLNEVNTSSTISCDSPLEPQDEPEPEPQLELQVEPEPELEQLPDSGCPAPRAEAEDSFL

T7 sequence (P08581 25-1390): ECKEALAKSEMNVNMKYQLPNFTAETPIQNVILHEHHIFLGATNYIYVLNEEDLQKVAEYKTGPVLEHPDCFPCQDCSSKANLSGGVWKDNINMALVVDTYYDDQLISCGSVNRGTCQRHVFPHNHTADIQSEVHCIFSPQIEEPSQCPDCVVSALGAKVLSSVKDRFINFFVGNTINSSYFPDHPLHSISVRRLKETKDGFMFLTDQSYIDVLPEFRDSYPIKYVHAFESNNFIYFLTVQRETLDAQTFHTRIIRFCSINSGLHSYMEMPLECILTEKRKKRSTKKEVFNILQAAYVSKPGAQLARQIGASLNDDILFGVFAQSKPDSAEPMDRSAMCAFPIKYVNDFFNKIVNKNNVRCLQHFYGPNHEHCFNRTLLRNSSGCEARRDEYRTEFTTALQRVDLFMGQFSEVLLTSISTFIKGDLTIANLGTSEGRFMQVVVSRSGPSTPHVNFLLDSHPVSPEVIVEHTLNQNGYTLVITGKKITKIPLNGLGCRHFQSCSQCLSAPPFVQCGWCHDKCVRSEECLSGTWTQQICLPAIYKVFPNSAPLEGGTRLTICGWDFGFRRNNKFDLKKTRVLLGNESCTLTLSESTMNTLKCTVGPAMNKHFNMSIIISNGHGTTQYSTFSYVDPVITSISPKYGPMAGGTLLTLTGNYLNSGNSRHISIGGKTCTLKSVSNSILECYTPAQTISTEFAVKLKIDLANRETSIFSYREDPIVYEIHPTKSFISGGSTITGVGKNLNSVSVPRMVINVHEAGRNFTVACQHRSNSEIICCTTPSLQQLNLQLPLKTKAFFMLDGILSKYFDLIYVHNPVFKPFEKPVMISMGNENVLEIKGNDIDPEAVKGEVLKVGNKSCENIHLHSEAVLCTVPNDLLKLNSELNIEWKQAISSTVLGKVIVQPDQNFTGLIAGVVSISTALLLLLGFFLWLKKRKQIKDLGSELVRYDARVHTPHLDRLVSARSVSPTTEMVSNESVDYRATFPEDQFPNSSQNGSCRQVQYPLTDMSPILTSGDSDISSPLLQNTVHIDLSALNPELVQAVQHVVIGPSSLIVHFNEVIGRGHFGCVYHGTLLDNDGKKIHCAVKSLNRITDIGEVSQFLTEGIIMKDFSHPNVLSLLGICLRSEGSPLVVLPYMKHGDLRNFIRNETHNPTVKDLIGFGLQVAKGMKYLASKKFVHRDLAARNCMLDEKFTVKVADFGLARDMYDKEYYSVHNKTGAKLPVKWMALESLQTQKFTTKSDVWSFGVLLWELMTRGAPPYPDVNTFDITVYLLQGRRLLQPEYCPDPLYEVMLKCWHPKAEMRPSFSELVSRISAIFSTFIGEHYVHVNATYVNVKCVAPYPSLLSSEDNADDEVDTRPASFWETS
T8 sequence (Q9Y243 whole entry, the tested form may be a part): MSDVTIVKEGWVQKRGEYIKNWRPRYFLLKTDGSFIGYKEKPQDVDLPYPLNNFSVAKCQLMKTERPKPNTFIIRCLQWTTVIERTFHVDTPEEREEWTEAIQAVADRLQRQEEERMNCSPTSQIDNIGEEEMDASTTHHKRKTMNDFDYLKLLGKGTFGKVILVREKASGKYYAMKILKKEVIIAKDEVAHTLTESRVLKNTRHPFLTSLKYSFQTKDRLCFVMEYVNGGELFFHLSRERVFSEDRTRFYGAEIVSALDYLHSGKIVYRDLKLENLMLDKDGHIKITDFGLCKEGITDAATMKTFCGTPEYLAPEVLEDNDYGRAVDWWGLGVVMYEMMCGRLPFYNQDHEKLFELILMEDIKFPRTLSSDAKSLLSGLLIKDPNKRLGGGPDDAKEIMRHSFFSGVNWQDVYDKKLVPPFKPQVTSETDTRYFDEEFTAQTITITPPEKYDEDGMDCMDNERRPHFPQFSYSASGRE
T4 sequence (P00533 25-1210, species assumed): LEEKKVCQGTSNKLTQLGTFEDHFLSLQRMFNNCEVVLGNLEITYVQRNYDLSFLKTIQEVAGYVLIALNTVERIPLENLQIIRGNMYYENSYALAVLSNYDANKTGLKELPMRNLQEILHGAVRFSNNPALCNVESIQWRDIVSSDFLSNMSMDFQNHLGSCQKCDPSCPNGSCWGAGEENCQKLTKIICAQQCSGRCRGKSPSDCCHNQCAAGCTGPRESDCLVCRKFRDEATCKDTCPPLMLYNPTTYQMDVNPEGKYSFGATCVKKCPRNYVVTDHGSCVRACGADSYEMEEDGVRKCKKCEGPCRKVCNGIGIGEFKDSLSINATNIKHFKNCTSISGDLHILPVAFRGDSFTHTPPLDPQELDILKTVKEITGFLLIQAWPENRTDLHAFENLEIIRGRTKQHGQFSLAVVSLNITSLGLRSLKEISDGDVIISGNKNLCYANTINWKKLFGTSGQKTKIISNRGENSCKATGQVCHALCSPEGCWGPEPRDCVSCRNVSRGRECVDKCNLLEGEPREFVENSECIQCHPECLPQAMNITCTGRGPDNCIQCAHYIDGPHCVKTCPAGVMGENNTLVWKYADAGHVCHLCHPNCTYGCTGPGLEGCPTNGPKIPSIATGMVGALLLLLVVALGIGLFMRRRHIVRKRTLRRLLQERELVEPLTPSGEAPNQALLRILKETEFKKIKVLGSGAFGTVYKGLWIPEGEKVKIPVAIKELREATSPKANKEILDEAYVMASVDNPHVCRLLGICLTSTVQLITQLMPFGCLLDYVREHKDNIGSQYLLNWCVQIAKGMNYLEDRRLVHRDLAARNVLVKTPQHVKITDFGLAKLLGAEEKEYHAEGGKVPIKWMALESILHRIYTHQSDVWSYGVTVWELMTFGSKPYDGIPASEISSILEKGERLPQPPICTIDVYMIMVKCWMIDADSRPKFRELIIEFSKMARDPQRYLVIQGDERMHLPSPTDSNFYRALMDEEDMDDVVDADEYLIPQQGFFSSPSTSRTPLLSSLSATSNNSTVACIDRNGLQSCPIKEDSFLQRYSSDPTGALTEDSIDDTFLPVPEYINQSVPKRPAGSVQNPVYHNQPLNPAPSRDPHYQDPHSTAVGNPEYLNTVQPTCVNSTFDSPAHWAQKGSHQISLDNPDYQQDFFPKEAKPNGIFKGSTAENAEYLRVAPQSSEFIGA
T1 sequence (P06239 whole entry, species assumed, the tested form may be a part): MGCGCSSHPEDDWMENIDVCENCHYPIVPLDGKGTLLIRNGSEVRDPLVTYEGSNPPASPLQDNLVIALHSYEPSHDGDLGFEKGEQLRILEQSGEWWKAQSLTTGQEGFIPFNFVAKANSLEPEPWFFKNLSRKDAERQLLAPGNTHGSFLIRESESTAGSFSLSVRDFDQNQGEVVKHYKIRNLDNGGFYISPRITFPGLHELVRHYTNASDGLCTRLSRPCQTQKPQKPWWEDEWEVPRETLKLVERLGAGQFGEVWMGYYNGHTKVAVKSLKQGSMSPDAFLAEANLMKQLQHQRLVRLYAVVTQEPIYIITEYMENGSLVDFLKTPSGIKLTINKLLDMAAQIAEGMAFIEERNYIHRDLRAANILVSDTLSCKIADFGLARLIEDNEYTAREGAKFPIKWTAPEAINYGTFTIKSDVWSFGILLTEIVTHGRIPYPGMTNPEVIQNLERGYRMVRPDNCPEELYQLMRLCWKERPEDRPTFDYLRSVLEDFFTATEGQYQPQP

IC50 (Lck) [µM]	IC50 (Zap-70) [µM]	IC50 (Itk) [µM]	IC50 (EGFR) [µM]	IC50 (ErbB2) [µM]	IC50 (Kdr) [µM]	IC50 (c-Met) [µM]	IC50 (AKT) [µM]	IC50 (IGFR-1) [µM]	IC50 (PDGFRB) [µM]	Structure (SMILES)	Lck-1 (Lck)	Zap-1 (Zap-70)	Itk-1 (Itk)	EGFR-1 (EGFR)	ErbB2-2 (ErbB2)	KDR-1 (Kdr)	Met-1 (c-Met)	AKT3-1 (AKT)	IGFR-1 (IGFR-1)	PDGFRB-1 (PDGFRB)
< 1.02	6.1 to 8.9	1.02 to 6.1	1.02 to 6.1	1.02 to 6.1	1.02 to 6.1	6.1 to 8.9	> 11.4	< 1.02	< 1.02	COc1cc(Nc2ncnc(Nc3ccc4c(c3)CCC4)n2)cc(OC)c1OC [Compound 629]										
0.91 to 5.46	> 10.2	7.97 to 10.2	< 0.91	5.46 to 7.97	0.91 to 5.46	5.46 to 7.97	7.97 to 10.2	< 0.91	0.91 to 5.46	COc1cc(Nc2ncnc(Nc3cc(C(F)(F)F)ccc3F)n2)cc(OC)c1OC [Compound 618]										
< 0.982	> 11	0.982 to 5.89	0.982 to 5.89	< 0.982	0.982 to 5.89	> 11	> 11	< 0.982	< 0.982	COc1cc(Nc2ncnc(Nc3ccc4nn(C)cc4c3)n2)cc(OC)c1OC [Compound 556]										
1.01 to 6.07	> 11.4	8.85 to 11.4	< 1.01	1.01 to 6.07	< 1.01	< 1.01	> 11.4	< 1.01	1.01 to 6.07	CCN(c1ccc(C)cc1)c1ncnc(Nc2cc(OC)c(OC)c(OC)c2)n1 [Compound 538]										
> 12.6	> 12.6	> 12.6	> 12.6	> 12.6	> 12.6	> 12.6	> 12.6	> 12.6	1.12 to 6.7	CCN1CCCC1CNc1ncnc(Nc2ccc(OC)c(OC)c2)n1 (centres unmarked) [Compound 781]										
0.972 to 5.83	> 10.9	> 10.9	< 0.972	< 0.972	5.83 to 8.51	> 10.9	> 10.9	> 10.9	0.972 to 5.83	COc1cc(Nc2ncnc(Nc3cccc(CC(=O)O)c3)n2)cc(OC)c1OC [Compound 624]										
> 13.6	> 13.6	> 13.6	> 13.6	1.21 to 7.24	> 13.6	> 13.6	> 13.6	> 13.6	10.6 to 13.6	COc1ccc(Nc2ncnc(NC[C@@H]3CCCO3)n2)cc1OC [Compound 790]										

More lines, now with the values behind:

Structure (SMILES)	IC50 (Lck) [µM]	IC50 (Zap-70) [µM]	IC50 (Itk) [µM]	IC50 (EGFR) [µM]	IC50 (ErbB2) [µM]	IC50 (Kdr) [µM]	IC50 (c-Met) [µM]	IC50 (AKT) [µM]	IC50 (IGFR-1) [µM]	IC50 (PDGFRB) [µM]	Lck-1 (Lck)	Zap-1 (Zap-70)	Itk-1 (Itk)	EGFR-1 (EGFR)	ErbB2-2 (ErbB2)	KDR-1 (Kdr)	Met-1 (c-Met)	AKT3-1 (AKT)	IGFR-1 (IGFR-1)	PDGFRB-1 (PDGFRB)
O=C(O)Cc1cccc(Nc2ncnc(-n3c(NCc4ccccc4)nc4ccccc43)n2)c1 [Compound 531]	0.886 to 5.32	> 9.97	> 9.97	< 0.886	< 0.886	< 0.886	7.75 to 9.97	> 9.97	> 9.97	< 0.886										
CC(=O)Nc1ccc(Nc2ncnc(N3CCCc4cc(C)ccc43)n2)cc1 [Compound 760]	1.07 to 6.41	> 12	> 12	< 1.07	1.07 to 6.41	1.07 to 6.41	1.07 to 6.41	> 12	> 12	1.07 to 6.41										
C=CCNc1nc2ccccc2n1-c1ncnc(Nc2cc(OC)c(OC)c(OC)c2)n1 [Compound 574]	< 0.923	> 10.4	> 10.4	> 10.4	> 10.4	< 0.923	> 10.4	> 10.4	0.923 to 5.54	< 0.923										
c1ccc(Cn2ncc3cc(Nc4ncnc(Nc5cc(-c6ccccc6)[nH]n5)n4)ccc32)cc1 [Compound 737]	5.22 to 7.62	7.62 to 9.79	0.87 to 5.22	0.87 to 5.22	0.87 to 5.22	0.87 to 5.22	5.22 to 7.62	7.62 to 9.79	0.87 to 5.22	5.22 to 7.62										
Fc1ccc(Nc2ncnc(Nc3ccc4[nH]ccc4c3)n2)cc1Cl [Compound 715]											E (E>4.5 ug/mL)	C (C>2.4 and <3.5 ug/mL)	D (D>3.5 and <4.5 ug/mL)	A (A<0.4 ug/mL)	B (B>0.4 and <2.4 ug/mL)	B (B>0.4 and <2.4 ug/mL)	C (C>2.4 and <3.5 ug/mL)	D (D>3.5 and <4.5 ug/mL)	B (B>0.4 and <2.4 ug/mL)	B (B>0.4 and <2.4 ug/mL)
CN(c1cccc(Cl)c1)c1ncnc(-n2c(N)nc3ccccc32)n1 [Compound 664]	1.14 to 6.82	6.82 to 9.95	6.82 to 9.95	1.14 to 6.82	1.14 to 6.82	1.14 to 6.82	1.14 to 6.82	6.82 to 9.95	1.14 to 6.82	9.95 to 12.8										
COc1ccc(N(C)c2ncnc(-n3c(N)nc4ccccc43)n2)cc1 [Compound 663]	> 13	> 13	> 13	> 13	> 13	6.91 to 10.1	> 13	> 13	> 13	> 13										
COc1cc(Nc2ncnc(-c3cccnc3Cl)n2)cc(OC)c1OCCN1CCOCC1 [Compound 565]	0.846 to 5.07	> 9.52	> 9.52	> 9.52	> 9.52	5.07 to 7.4	> 9.52	> 9.52	> 9.52	0.846 to 5.07										
COCCCNc1ncnc(N2CCCc3cc(C)ccc32)n1 [Compound 762]	> 14.4	> 14.4	> 14.4	11.2 to 14.4	> 14.4	> 14.4	> 14.4	> 14.4	> 14.4	> 14.4										
COc1ccc(-c2cc(Nc3ncnc(Nc4ccc(CC(N)=O)cc4)n3)[nH]n2)cc1 [Compound 576]	< 0.961	> 10.8	0.961 to 5.76	0.961 to 5.76	> 10.8	< 0.961	< 0.961	> 10.8	< 0.961	> 10.8										
COC(=O)Cc1cccc(Nc2ncnc(-n3c(NCc4ccccn4)nc4ccccc43)n2)c1 [Compound 547]	> 9.65	> 9.65	> 9.65	> 9.65	> 9.65	< 0.857	> 9.65	> 9.65	> 9.65	> 9.65										
Cc1ccc2c(c1)CCCN2c1ncnc(Nc2cccc(CO)c2)n1 [Compound 770]	< 1.15	> 13	> 13	< 1.15	< 1.15	1.15 to 6.91	< 1.15	> 13	10.1 to 13	< 1.15										
COc1ccc(Nc2ncnc(N(C)c3cccc(Cl)c3)n2)cc1 [Compound 743]	> 13.2	> 13.2	> 13.2	< 1.17	> 13.2	> 13.2	> 13.2	> 13.2	> 13.2	> 13.2										
